Test results reported in patent US6750220B2, “Amine salt of an integrin receptor antagonist” (Merck & Co., Inc., priority 2001, dated 2004).
Counter-ions that a name gives are not always drawn.

Test: solubility in water
Format: physicochemical
Conditions: compared with the parent zwitterionic compound of structural formula IV

For O=C(O)CC(CCCCCCc1ccc2c(n1)NCCC2)c1cncnc1 (stereo not shown) [TRIS salt, tris(hydroxymethyl)aminomethyl (“TRIS”) salt of 3-(pyrimidin-5-yl)-9-(5,6,7,8-tetrahydro-[1,8]-naphthyridin-2-yl)-nonanoic acid], the solubility in water was “greater solubility in water than the parent zwitterionic compound”.
